Results reported in ChEMBL document CHEMBL6182920, “The Discovery of C7-Substituted Norbornyl Bisamides as RXFP1 Small Molecule Agonists” (J Med Chem, 2025).
In brackets after ≈: the same amount, converted by molar mass.

Experiments:
[1] = molecular target: T1, Relaxin receptor 1 (Mus musculus, UniProt Q6R6I7); experiment: Agonist activity at mouse RXFP1 stably expressed in HEK293 cells assessed as intracellular cAMP accumulation incubated for 30 mins by HTRF assay; format: functional, cell-based
T1 sequence (Q6R6I7 whole entry): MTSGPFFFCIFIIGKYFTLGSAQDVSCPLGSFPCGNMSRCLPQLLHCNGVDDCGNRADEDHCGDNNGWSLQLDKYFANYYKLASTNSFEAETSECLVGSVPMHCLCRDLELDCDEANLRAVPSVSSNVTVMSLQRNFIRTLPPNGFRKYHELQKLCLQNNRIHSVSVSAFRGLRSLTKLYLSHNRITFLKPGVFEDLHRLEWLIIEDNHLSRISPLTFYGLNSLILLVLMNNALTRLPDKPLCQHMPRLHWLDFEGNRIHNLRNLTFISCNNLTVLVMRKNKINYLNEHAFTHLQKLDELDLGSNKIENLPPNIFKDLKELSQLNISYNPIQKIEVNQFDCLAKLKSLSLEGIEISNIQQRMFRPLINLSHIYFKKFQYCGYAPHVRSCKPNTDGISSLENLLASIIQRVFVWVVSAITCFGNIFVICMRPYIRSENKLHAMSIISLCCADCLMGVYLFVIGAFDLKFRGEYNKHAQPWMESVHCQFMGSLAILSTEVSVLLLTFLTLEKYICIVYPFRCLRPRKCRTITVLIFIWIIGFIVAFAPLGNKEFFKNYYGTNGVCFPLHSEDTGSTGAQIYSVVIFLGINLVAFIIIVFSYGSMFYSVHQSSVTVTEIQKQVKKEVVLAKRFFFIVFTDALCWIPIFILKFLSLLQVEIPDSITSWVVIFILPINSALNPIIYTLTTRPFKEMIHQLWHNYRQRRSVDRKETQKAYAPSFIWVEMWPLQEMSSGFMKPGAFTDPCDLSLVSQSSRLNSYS

[2] = molecular target: T1, Relaxin receptor 1; experiment: Partial agonist activity at mouse RXFP1 expressed in HEK293 cells assessed as intracellular cAMP accumulation incubated for 30 mins by HTRF assay; format: functional, cell-based
[3] = Oral bioavailability in CD-1 mouse at 10 mg/kg; format: ADME, organism-based; conditions: in vivo
[4] = Microsomal stability in human liver microsomes assessed as compound remaining measured after 30 mins; format: ADME, Microsome; conditions: read-out: Stability
[5] = Microsomal stability in rat liver microsomes assessed as compound remaining measured after 30 mins; format: ADME, Microsome; conditions: read-out: Stability
[6] = Microsomal stability in mouse liver microsomes assessed as compound remaining measured after 30 mins; format: ADME, Microsome; conditions: read-out: Stability
[7] = system: Rattus norvegicus; experiment: Chronotropic effect in isoflurane-anesthetized male naive Sprague-Dawley rat model assessed as effect on heart rate at 0.5 mg/kg/min, iv measured after 60 mins; format: functional, organism-based
[8] = system: Rattus norvegicus; experiment: Chronotropic effect in iv dosed isoflurane-anesthetized male naive Sprague-Dawley rat model assessed as increase in heart rate measured after 60 mins; format: functional, organism-based; conditions: dose lower […], dose upper 5.0 mg/kg/min
[9] = Thermodynamic aqueous solubility of compound in phosphate buffer at pH 7.4 by reversed-phase ultrahigh pressure liquid chromatography; format: physicochemical; conditions: phosphate buffer, read-out: Therm_solubility
[10] = molecular target: T2, Relaxin receptor 1 (Rattus norvegicus, UniProt Q6R6I6); experiment: Agonist activity at rat RXFP1 stably expressed in HEK293 cells assessed as intracellular cAMP accumulation incubated for 30 mins by HTRF assay; format: cell-based
T2 sequence (Q6R6I6 whole entry): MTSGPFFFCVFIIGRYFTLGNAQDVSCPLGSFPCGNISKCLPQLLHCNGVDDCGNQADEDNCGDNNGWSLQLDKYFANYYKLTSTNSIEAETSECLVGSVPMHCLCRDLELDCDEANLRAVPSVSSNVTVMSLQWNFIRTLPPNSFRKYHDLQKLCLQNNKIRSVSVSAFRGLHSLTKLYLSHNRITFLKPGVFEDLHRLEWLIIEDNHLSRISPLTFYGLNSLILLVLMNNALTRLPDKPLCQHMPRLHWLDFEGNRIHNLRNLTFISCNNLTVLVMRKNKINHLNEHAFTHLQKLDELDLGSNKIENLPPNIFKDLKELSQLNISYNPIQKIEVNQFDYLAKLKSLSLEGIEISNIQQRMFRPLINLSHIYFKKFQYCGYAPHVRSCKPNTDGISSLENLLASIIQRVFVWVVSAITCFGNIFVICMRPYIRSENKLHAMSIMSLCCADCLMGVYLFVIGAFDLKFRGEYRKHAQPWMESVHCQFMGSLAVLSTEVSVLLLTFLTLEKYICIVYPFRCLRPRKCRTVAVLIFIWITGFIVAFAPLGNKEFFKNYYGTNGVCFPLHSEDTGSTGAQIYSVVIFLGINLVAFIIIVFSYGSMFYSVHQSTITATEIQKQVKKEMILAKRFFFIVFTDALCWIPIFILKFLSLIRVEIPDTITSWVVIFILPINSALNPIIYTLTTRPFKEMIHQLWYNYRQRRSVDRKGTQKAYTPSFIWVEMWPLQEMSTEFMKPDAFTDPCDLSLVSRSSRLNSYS

[11] = molecular target: T3, Relaxin receptor 1 (Homo sapiens, UniProt Q9HBX9); experiment: Agonist activity at human RXFP1
T3 sequence (Q9HBX9 whole entry): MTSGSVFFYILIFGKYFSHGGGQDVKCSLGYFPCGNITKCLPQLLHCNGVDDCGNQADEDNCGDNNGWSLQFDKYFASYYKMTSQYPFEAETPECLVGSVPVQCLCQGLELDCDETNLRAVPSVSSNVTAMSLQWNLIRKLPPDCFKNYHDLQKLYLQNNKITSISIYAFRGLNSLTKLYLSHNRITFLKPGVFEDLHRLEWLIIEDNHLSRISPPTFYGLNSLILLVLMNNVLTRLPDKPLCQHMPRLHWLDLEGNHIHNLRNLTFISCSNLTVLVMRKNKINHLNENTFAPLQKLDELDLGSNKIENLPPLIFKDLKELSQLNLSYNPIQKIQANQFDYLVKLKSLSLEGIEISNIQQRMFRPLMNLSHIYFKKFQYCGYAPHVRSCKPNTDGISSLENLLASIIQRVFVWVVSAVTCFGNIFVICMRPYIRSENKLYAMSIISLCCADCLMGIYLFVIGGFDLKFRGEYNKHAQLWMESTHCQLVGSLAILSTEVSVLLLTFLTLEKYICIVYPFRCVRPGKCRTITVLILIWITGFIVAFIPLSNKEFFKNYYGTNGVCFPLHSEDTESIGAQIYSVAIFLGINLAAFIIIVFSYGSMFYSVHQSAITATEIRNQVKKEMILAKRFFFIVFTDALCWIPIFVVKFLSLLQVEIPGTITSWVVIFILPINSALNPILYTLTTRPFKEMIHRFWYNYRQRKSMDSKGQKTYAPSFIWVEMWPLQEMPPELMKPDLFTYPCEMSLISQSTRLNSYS

| Compound | EC50 [1] | EC50 [2] | bioavailability [3] | remaining at 0.5 h [4] | remaining at 0.5 h [5] | remaining at 0.5 h [6] | other results |
| --- | --- | --- | --- | --- | --- | --- | --- |
| COc1ccc(-c2cc(C(=O)O)ccc2F)cc1C(=O)N[C@H]1[C@@H](C(=O)Nc2ccc(F)c(C(F)(F)F)c2)[C@H]2CC[C@@H]1/C2=C\C(F)(F)F | 500 nM | 500 nM | 36% | > 90% | > 90% | > 90% |  |
| CNC(=O)OC(C(=O)O)c1ccc(F)c(-c2ccc(OC)c(C(=O)N[C@H]3[C@@H](C(=O)Nc4ccc(F)c(C(F)(F)F)c4)[C@H]4CC[C@@H]3/C4=C\C3CC3)c2)c1 (stereo in doubt; 39) |  |  |  |  |  |  | Activity [7]: No effect; Activity [8]: Dose-dependent-effect |
| COc1ccc(-c2cc(C(=O)O)ccc2F)cc1C(=O)N[C@H]1[C@@H](C(=O)Nc2ccc(F)c(C(F)(F)F)c2)[C@H]2CC[C@@H]1/C2=C\c1cnoc1 | 580 nM | 580 nM |  | > 90% | > 90% | > 90% | solubility thermodynamic [9]: 15 µg/mL (≈ 22.5 µM); EC50 [10]: 880 nM |
| COc1ccc(-c2cncn2C)cc1C(=O)N[C@H]1[C@@H](C(=O)Nc2ccc(F)c(C(F)(F)F)c2)[C@H]2CC[C@@H]1C2=C(C)C | > 10000 nM |  | 29% |  |  |  |  |
| COc1cc(F)c(F)cc1C(=O)Nc1ccccc1C(=O)Nc1ccc(F)c(C(F)(F)F)c1 |  |  |  |  |  |  | EC50 [11]: 1200 nM |
